Results published in patent US9920061B2, “Imidazo[1,5-A]pyrimidinyl carboxamide compounds and their use in the treatment of medical disorders” (Lysosomal Therapeutics Inc., priority 2016, dated 2018).
In brackets after ≈: the same amount, converted by molar mass. Where two headings read alike, the source gives them in different places.

Legend:
[1] = Compound solubility in water; assay type: physicochemical
[2] = molecular target: T1, glucocerebrosidase (Gcase) (Homo sapiens, UniProt P04062); test: Glucocerebrosidase (Gcase) activation assay, 4-methylumbelliferyl-beta-D-glucopyranoside substrate, with saposin C; assay type: biochemical
T1 sequence (P04062 40-536): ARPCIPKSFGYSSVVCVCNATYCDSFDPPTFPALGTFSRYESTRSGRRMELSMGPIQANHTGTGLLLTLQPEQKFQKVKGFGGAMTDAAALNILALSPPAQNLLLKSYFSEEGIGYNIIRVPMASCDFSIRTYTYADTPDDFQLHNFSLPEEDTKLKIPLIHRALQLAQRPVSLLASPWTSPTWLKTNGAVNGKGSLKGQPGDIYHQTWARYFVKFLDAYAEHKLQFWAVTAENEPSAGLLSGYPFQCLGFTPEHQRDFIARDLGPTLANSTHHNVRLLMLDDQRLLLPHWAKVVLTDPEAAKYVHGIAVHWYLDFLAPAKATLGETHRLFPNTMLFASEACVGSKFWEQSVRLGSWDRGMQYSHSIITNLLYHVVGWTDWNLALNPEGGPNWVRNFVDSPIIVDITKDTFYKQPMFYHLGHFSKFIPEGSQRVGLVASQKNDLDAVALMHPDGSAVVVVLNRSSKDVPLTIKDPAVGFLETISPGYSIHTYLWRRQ
How it was run: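 Micellar buffer (176 mM K2HPO4/50 mM citric acid, pH 4.7; 0.32 mM triton, 0.37 mol % PS) holding 10 nM GCase and 100 nM saposin C, pre-incubated with compound 30 min at room temperature. Substrate final 2 mM before mixing; 15 min reaction, glycine pH 12.5 stop, fluorescence 365/440 nm. Screened at 1.0 and 0.1 μM; 8-point, 3-fold dose response.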

[3] = 0.1 μM test compound, read-out: Percent Gcase Activation 0.1 μM Test Compound
[4] = 1 μM test compound, read-out: Percent Gcase Activation 1 μM Test Compound
[5] = test compound at 0.1 μM, read-out: Percent Gcase Activation, 0.1 μM Test Compound
[6] = test compound at 1.0 μM, read-out: Percent Gcase Activation, 1 μM Test Compound

Row | SMILES | solubility [1] [µg/mL] | activation at 0.1 µM [2, 3] [%] | activation at 1 µM [2, 4] [%] | solubility ([1]; in water) [µg/mL] | activation at 0.1 µM [2, 5] [%] | activation at 1 µM [2, 6] [%]
1 | COc1cccc(-c2cc(C)n3cnc(C(=O)NC(C4CC4)C4CC4)c3n2)c1 [III-172] | 4.2 (≈ 11.2 µM) | > 20 | > 60 |  |  | 
2 | COc1cc(F)cc(-c2cc(C)n3cnc(C(=O)NC(C4CC4)C4CC4)c3n2)c1 [III-173] | 1.7 (≈ 4.31 µM) | > 20 | > 60 |  |  | 
3 | COc1cc(-c2cc(C)n3cnc(C(=O)NC(C4CC4)C4CC4)c3n2)ccc1F [III-174] | 0.3 (≈ 0.761 µM) | > 20 | > 60 |  |  | 
4 | COc1cc(-c2cc(C)n3cnc(C(=O)NC(C4CC4)C4CC4)c3n2)ccc1Cl [III-175] | 0.2 (≈ 0.487 µM) | 10 to 20 | > 60 |  |  | 
5 | Cc1cc(OC(C)C)nc2c(C(=O)NC(C3CC3)C3CC3)ncn12 [III-178] | 17.4 (≈ 53 µM) | 10 to 20 | > 60 |  |  | 
6 | Cc1cc(OC2CC2)nc2c(C(=O)NC(C3CC3)C3CC3)ncn12 [III-179] | 14.3 (≈ 43.8 µM) | < 10 | 30 to 60 |  |  | 
7 | Cc1cc(OC2CCC2)nc2c(C(=O)NC(C3CC3)C3CC3)ncn12 [III-180] | 23.3 (≈ 68.4 µM) | 10 to 20 | > 60 |  |  | 
8 | Cc1cc(-c2cccc(F)c2)nc2c(C(=O)NC(C)(C)C(F)(F)F)ncn12 [III-183] | 0.6 (≈ 1.58 µM) | > 20 | > 60 |  |  | 
9 | COc1cccc(-c2cc(C)n3cnc(C(=O)NC(C)(C)C(F)(F)F)c3n2)c1 [III-184] | 4.3 (≈ 11 µM) | > 20 | > 60 |  |  | 
10 | Cc1cc(-c2cccc(Cl)c2)nc2c(C(=O)NC(C)(C)C(F)(F)F)ncn12 [III-185] | 3.7 (≈ 9.32 µM) | > 20 | > 60 |  |  | 
11 | C#CC(C)(C)NC(=O)c1ncn2c(C)cc(-c3cccc(OC4CC4)c3)nc12 [III-186] | 1.5 (≈ 4.01 µM) | > 20 | > 60 |  |  | 
12 | C#CC(C)(C)NC(=O)c1ncn2c(C)cc(-c3cc(F)cc(OC)c3)nc12 [III-187] | 0.9 (≈ 2.46 µM) | > 20 | > 60 |  |  | 
13 | C#CC(C)(C)NC(=O)c1ncn2c(C)cc(-c3cc(F)cc(F)c3)nc12 [III-188] | 0.3 (≈ 0.847 µM) | 10 to 20 | > 60 |  |  | 
14 | COc1cccc(-c2cc(C)n3cnc(C(=O)N[C@H](C)C4CC4)c3n2)c1 [IV-1] |  |  |  | 8.3 (≈ 23.7 µM) | 10 to 20 | > 60
15 | CCCCO[C@H]1C[C@H]2CC[C@@H](C1)[C@H]2NC(=O)c1ncn2c(COC)cc(C)nc12 [IV-2] |  |  |  | 27.5 (≈ 68.7 µM) | > 20 | > 60
16 | CCCCO[C@H]1C[C@H]2CC[C@@H](C1)[C@@H]2NC(=O)c1ncn2c(COC)cc(C)nc12 [IV-3] |  |  |  | 15.3 (≈ 38.2 µM) | < 10 | 30 to 60
17 | CCCCO[C@H]1C[C@H]2CC[C@@H](C1)[C@H]2NC(=O)c1ncn2c(C)cc(COC)nc12 [IV-4] |  |  |  | 16.4 (≈ 40.9 µM) | > 20 | > 60
18 | CCCCO[C@H]1C[C@H]2CC[C@@H](C1)[C@@H]2NC(=O)c1ncn2c(C)cc(COC)nc12 [IV-5] |  |  |  | 24.3 (≈ 60.7 µM) | < 10 | > 60
19 | Cc1cc(C)n2cnc(C(=O)N[C@H]3[C@@H]4CC[C@H]3C[C@@H](OC(C)(C)C)C4)c2n1 [IV-10] |  |  |  | 1 (≈ 2.7 µM) | > 20 | > 60
20 | Cc1cc(C)n2cnc(C(=O)N[C@@H]3[C@@H]4CC[C@H]3C[C@@H](OC(C)(C)C)C4)c2n1 [IV-11] |  |  |  | 4.9 (≈ 13.2 µM) | > 20 | > 60
21 | Cc1cc(-c2cccc3ncoc23)nc2c(C(=O)N[C@H](C3CC3)C(F)(F)F)ncn12 [IV-17] |  |  |  | 1.1 (≈ 2.65 µM) | > 20 | > 60
22 | COc1cccc(-c2cc(C)n3cnc(C(=O)N[C@H](C)C(F)(F)F)c3n2)c1 [IV-21] |  |  |  | 2.7 (≈ 7.14 µM) | 10 to 20 | > 60
23 | COc1cccc(-c2cc(C)n3cnc(C(=O)N[C@@H](C)C(F)(F)F)c3n2)c1 [IV-22] |  |  |  | 1.7 (≈ 4.49 µM) | > 20 | > 60
24 | C#CC(NC(=O)c1ncn2c(C)cc(-c3ccccc3C#N)nc12)C(F)(F)F (stereo not drawn) [IV-23] |  |  |  | 0.6 (≈ 1.57 µM) | 10 to 20 | > 60

Results, then the compound that gave them:

Row | solubility [1] [µg/mL] | activation at 0.1 µM [2, 3] [%] | activation at 1 µM [2, 4] [%] | solubility ([1]; in water) [µg/mL] | activation at 0.1 µM [2, 5] [%] | activation at 1 µM [2, 6] [%] | SMILES
25 | 0.1 (≈ 0.237 µM) | > 20 | > 60 |  |  |  | COc1cc(F)cc(-c2cc(C)n3cnc(C(=O)NC(C4CC4)C(F)(F)F)c3n2)c1 (stereo not drawn) [III-170]
26 | 0.6 (≈ 1.42 µM) | > 20 | > 60 |  |  |  | COc1cc(-c2cc(C)n3cnc(C(=O)NC(C4CC4)C(F)(F)F)c3n2)ccc1F (stereo not drawn) [III-171]
27 | 5.5 (≈ 14.9 µM) | > 20 | > 60 |  |  |  | Cc1cc(OC2CCC2)nc2c(C(=O)NC(C3CC3)C(F)(F)F)ncn12 (stereo not drawn) [III-176]
28 | 25.4 (≈ 71.3 µM) | 10 to 20 | 30 to 60 |  |  |  | Cc1cc(OC(C)C)nc2c(C(=O)NC(C3CC3)C(F)(F)F)ncn12 (stereo not drawn) [III-177]
29 | 1.5 (≈ 3.71 µM) | > 20 | > 60 |  |  |  | COc1cccc(-c2cc(C)n3cnc(C(=O)NC(C4CC4)C(F)(F)F)c3n2)c1 (stereo not drawn) [III-182]
30 |  |  |  | 15.1 (≈ 36.2 µM) | < 10 | 30 to 60 | Cc1cc(NC(=O)c2ccccc2)nc2c(C(=O)NC(C3CC3)C(F)(F)F)ncn12 (stereo not drawn) [IV-6]
31 |  |  |  | 9.9 (≈ 26 µM) | 10 to 20 | > 60 | Cc1cc(-c2ccns2)nc2c(C(=O)N[C@H](C3CC3)C(F)(F)F)ncn12 [IV-7]
32 |  |  |  | 19.7 (≈ 51.7 µM) | 10 to 20 | > 60 | Cc1cc(-c2ccns2)nc2c(C(=O)N[C@@H](C3CC3)C(F)(F)F)ncn12 [IV-8]
33 |  |  |  | 3.9 (≈ 10.7 µM) | < 10 | 30 to 60 | Cc1cc(-c2ccon2)nc2c(C(=O)NC(C3CC3)C(F)(F)F)ncn12 (stereo not drawn) [IV-9]
34 |  |  |  | 1.9 (≈ 4.69 µM) | > 20 | > 60 | COc1cccc(-c2cc(C)n3cnc(C(=O)N[C@H](C4CC4)C(F)(F)F)c3n2)n1 [IV-13]
35 |  |  |  | 3.2 (≈ 7.89 µM) | > 20 | > 60 | COc1cccc(-c2cc(C)n3cnc(C(=O)N[C@@H](C4CC4)C(F)(F)F)c3n2)n1 [IV-14]
36 |  |  |  | 2.1 (≈ 4.87 µM) | 10 to 20 | > 60 | Cc1cc(-c2cccc(OC3CC3)n2)nc2c(C(=O)NC(C3CC3)C(F)(F)F)ncn12 (stereo not drawn) [IV-15]
37 |  |  |  | 24.6 (≈ 56.1 µM) | 10 to 20 | > 60 | CCc1cc(N2CCN(C(C)C)C2=O)nc2c(C(=O)NC(C3CC3)C(F)(F)F)ncn12 (stereo not drawn) [IV-16]
38 |  |  |  | 0.4 (≈ 0.963 µM) | > 20 | > 60 | Cc1cc(-c2cccc3ncoc23)nc2c(C(=O)N[C@@H](C3CC3)C(F)(F)F)ncn12 [IV-18]
39 |  |  |  | 0.7 (≈ 1.78 µM) | > 20 | > 60 | Cc1cc(-c2cccc(F)c2)nc2c(C(=O)N[C@H](C3CC3)C(F)(F)F)ncn12 [IV-19]
40 |  |  |  | 0.7 (≈ 1.78 µM) | > 20 | > 60 | Cc1cc(-c2cccc(F)c2)nc2c(C(=O)N[C@@H](C3CC3)C(F)(F)F)ncn12 [IV-20]
